# Values of other authors as cited in patent US7375136B2, “pH-dependent NMDA receptor antagonists” (Emory University, priority 2001, dated 2008).
# Molecular target: NR2B subunit-containing recombinant NMDA receptors (Homo sapiens, UniProt Q05586+Q13224)
# Conditions: pH 6.8 compared to pH 7.5; cited from earlier work
# NR2B subunit-containing recombinant NMDA receptors, sequence (Q13224 27-1484, other chains not shown): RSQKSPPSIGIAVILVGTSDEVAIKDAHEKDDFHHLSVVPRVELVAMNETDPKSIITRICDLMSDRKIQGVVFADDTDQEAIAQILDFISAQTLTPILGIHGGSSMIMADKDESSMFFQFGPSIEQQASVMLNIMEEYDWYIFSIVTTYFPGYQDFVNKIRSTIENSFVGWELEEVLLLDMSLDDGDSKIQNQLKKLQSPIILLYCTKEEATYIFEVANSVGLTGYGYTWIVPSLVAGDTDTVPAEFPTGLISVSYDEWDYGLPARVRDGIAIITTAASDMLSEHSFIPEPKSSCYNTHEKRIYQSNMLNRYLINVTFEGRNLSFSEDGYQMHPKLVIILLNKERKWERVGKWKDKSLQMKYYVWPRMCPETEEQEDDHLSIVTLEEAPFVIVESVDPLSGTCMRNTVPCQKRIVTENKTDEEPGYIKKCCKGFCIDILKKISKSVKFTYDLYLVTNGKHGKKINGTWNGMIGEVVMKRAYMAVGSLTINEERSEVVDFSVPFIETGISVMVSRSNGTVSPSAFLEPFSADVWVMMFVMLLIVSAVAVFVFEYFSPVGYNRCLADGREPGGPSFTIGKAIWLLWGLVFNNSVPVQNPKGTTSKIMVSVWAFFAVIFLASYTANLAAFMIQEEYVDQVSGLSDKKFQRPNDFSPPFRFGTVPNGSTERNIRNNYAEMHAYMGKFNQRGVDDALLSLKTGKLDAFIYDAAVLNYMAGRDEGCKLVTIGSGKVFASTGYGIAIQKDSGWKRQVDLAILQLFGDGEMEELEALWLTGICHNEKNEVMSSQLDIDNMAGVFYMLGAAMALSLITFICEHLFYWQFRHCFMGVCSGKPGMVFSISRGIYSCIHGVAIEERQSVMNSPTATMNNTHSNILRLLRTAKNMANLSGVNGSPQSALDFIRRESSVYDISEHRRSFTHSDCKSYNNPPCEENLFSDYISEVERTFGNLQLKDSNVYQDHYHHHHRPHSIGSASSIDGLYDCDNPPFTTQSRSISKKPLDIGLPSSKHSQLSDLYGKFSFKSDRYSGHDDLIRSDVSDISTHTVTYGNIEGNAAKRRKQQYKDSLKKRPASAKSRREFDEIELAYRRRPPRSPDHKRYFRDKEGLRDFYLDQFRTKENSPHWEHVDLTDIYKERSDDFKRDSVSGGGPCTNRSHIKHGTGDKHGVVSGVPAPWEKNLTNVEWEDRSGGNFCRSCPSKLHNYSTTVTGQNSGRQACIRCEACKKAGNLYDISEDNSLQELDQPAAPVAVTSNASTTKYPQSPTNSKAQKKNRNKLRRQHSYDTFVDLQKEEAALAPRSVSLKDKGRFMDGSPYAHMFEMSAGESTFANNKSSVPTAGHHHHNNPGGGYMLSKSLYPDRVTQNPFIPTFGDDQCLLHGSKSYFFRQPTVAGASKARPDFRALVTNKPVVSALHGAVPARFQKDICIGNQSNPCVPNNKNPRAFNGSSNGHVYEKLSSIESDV
smiles,measurement,value
CC(C(O)c1ccc(O)cc1)N1CCC(Cc2ccccc2)CC1 (stereo not shown) [Ifenprodil],potency for inhibition of NR2B subunit-containing recombinant NMDA receptors as a function of pH,enhanced at pH 6.8 compared to pH 7.5
